Columns and labels:
Test in all cases: Test B pre-/postemergence plant response
Type in all cases: in vivo
[1] = test system: goosegrass (Eleusine indica)
Summary of the method: (§1)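 Response scores were assigned visually after 13 to 15 days in a greenhouse, comparing treated pots with controls on a 0–100 scale where 100 denotes complete control. Preemergence treatments went onto freshly seeded loam/sand soil; postemergence treatments onto plants 2 to 18 cm tall.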

[2] = test system: yellow nutsedge (Cyperus esculentus)
Summary of the method: as §1

[3] = test system: green foxtail (Setaria viridis)
Summary of the method: as §1

[4] = test system: downy bromegrass (Bromus tectorum)
Summary of the method: as §1

[5] = test system: large crabgrass (Digitaria sanguinalis)
Summary of the method: as §1

[6] = test system: woolly cupgrass (Eriochloa villosa)
Summary of the method: as §1

[7] = test system: pigweed (Amaranthus retroflexus)
Summary of the method: as §1

[8] = test system: velvetleaf (Abutilon theophrasti)
Summary of the method: as §1

[9] = test system: giant foxtail (Setaria faberii)
Summary of the method: as §1

[10] = test system: wheat (Triticum aestivum)
Summary of the method: as §1

[11] = test system: johnsongrass (Sorghum halepense)
Summary of the method: as §1

[12] = test system: lambsquarters (Chenopodium album)
Summary of the method: as §1

kochia (Kochia scoparia) = test system: kochia (Kochia scoparia)
Summary of the method: as §1

[13] = 31 g ai/ha, postemergence, scale 0 to 100, 0 is no effect, 100 is complete control
[14] = 250 g ai/ha, Preemergence, 0 to 100 scale
[15] = Postemergence, 62 g ai/ha, scale 0 (no effect) to 100 (complete control), 13 to 15 days
[16] = Postemergence, 125 g ai/ha, visual rating after 13 to 15 days, scale 0 (no effect) to 100 (complete control)
[17] = Postemergence, 250 g ai/ha, scale 0 to 100 (0 no effect, 100 complete control)
[18] = Preemergence, 31 g ai/ha, scale 0 to 100 (0 no effect, 100 complete control)
[19] = Preemergence, 62 g ai/ha, scale 0 to 100 (0 no effect, 100 complete control)
[20] = Preemergence, 125 g ai/ha, scale 0 to 100, 0 no effect, 100 complete control

SMILES: O=C1CCCC(O)=C1C(=O)c1cnc(-c2cccc(Cl)c2)n(-c2ccc(Cl)cc2)c1=O [Compound 64]
- Plant response rating, Goosegrass [1, 13]: 80
- Plant response rating, Goosegrass [1, 14]: 100
- Plant response rating, Goosegrass [1, 15]: 80
- Plant response rating, Goosegrass [1, 16]: 85
- Plant response rating, Goosegrass [1, 17]: 90
- Plant response rating, Goosegrass [1, 18]: 30
- Plant response rating, Goosegrass [1, 19]: 40
- Plant response rating, Goosegrass [1, 20]: 98
- Plant response rating, Nutsedge, Yellow [2, 13]: 0
- Plant response rating, Nutsedge, Yellow [2, 15]: 10
- Plant response rating, Nutsedge, Yellow [2, 16]: 10
- Plant response rating, Nutsedge, Yellow [2, 17]: 25
- Plant response rating, Nutsedge, Yellow [2, 18]: 0
- Plant response rating, Nutsedge, Yellow [2, 19]: 0
- Plant response rating, Nutsedge, Yellow [2, 20]: 0
- Plant response rating, Foxtail, Green [3, 13]: 70
- Plant response rating, Foxtail, Green [3, 14]: 50
- Plant response rating, Foxtail, Green [3, 15]: 85
- Plant response rating, Foxtail, Green [3, 16]: 100
- Plant response rating, Foxtail, Green [3, 17]: 100
- Plant response rating, Foxtail, Green [3, 18]: 0
- Plant response rating, Foxtail, Green [3, 19]: 0
- Plant response rating, Foxtail, Green [3, 20]: 0
- Plant response rating, Bromegrass, Downy [4, 13]: 25
- Plant response rating, Bromegrass, Downy [4, 14]: 0
- Plant response rating, Bromegrass, Downy [4, 15]: 45
- Plant response rating, Bromegrass, Downy [4, 16]: 60
- Plant response rating, Bromegrass, Downy [4, 17]: 85
- Plant response rating, Bromegrass, Downy [4, 18]: 0
- Plant response rating, Bromegrass, Downy [4, 19]: 0
- Plant response rating, Bromegrass, Downy [4, 20]: 0
- Plant response rating, Crabgrass, Large [5, 13]: 85
- Plant response rating, Crabgrass, Large [5, 14]: 98
- Plant response rating, Crabgrass, Large [5, 15]: 90
- Plant response rating, Crabgrass, Large [5, 16]: 98
- Plant response rating, Crabgrass, Large [5, 17]: 98
- Plant response rating, Crabgrass, Large [5, 18]: 50
- Plant response rating, Crabgrass, Large [5, 19]: 75
- Plant response rating, Crabgrass, Large [5, 20]: 98
- Plant response rating, Cupgrass, Woolly [6, 13]: 75
- Plant response rating, Cupgrass, Woolly [6, 14]: 10
- Plant response rating, Cupgrass, Woolly [6, 15]: 95
- Plant response rating, Cupgrass, Woolly [6, 16]: 98
- Plant response rating, Cupgrass, Woolly [6, 17]: 98
- Plant response rating, Cupgrass, Woolly [6, 18]: 0
- Plant response rating, Cupgrass, Woolly [6, 19]: 0
- Plant response rating, Cupgrass, Woolly [6, 20]: 0
- Plant response rating, Pigweed [7, 13]: 98
- Plant response rating, Pigweed [7, 15]: 100
- Plant response rating, Pigweed [7, 16]: 100
- Plant response rating, Pigweed [7, 17]: 100
- Plant response rating, Pigweed [7, 18]: 55
- Plant response rating, Pigweed [7, 19]: 75
- Plant response rating, Pigweed [7, 20]: 85
- Plant response rating, Velvetleaf [8, 13]: 85
- Plant response rating, Velvetleaf [8, 15]: 98
- Plant response rating, Velvetleaf [8, 16]: 98
- Plant response rating, Velvetleaf [8, 17]: 100
- Plant response rating, Velvetleaf [8, 18]: 65
- Plant response rating, Velvetleaf [8, 19]: 75
- Plant response rating, Velvetleaf [8, 20]: 95
- Plant response rating, Foxtail, Giant [9, 13]: 90
- Plant response rating, Foxtail, Giant [9, 14]: 65
- Plant response rating, Foxtail, Giant [9, 15]: 95
- Plant response rating, Foxtail, Giant [9, 16]: 98
- Plant response rating, Foxtail, Giant [9, 17]: 100
- Plant response rating, Foxtail, Giant [9, 18]: 20
- Plant response rating, Foxtail, Giant [9, 19]: 25
- Plant response rating, Foxtail, Giant [9, 20]: 35
- Plant response rating, Wheat [10, 13]: 10
- Plant response rating, Wheat [10, 15]: 15
- Plant response rating, Wheat [10, 16]: 30
- Plant response rating, Wheat [10, 17]: 55
- Plant response rating, Wheat [10, 18]: 0
- Plant response rating, Wheat [10, 19]: 0
- Plant response rating, Wheat [10, 20]: 0
- Plant response rating, Johnsongrass [11, 13]: 90
- Plant response rating, Johnsongrass [11, 14]: 75
- Plant response rating, Johnsongrass [11, 15]: 98
- Plant response rating, Johnsongrass [11, 16]: 100
- Plant response rating, Johnsongrass [11, 17]: 100
- Plant response rating, Johnsongrass [11, 18]: 0
- Plant response rating, Johnsongrass [11, 19]: 0
- Plant response rating, Johnsongrass [11, 20]: 55
- Plant response rating, Lambsquarters [12, 13]: 95
- Plant response rating, Lambsquarters [12, 14]: 98
- Plant response rating, Lambsquarters [12, 15]: 100
- Plant response rating, Lambsquarters [12, 16]: 100
- Plant response rating, Lambsquarters [12, 17]: 100
- Plant response rating, Lambsquarters [12, 18]: 95
- Plant response rating, Lambsquarters [12, 19]: 98
- Plant response rating, Lambsquarters [12, 20]: 98
- Plant response rating, Kochia (kochia (Kochia scoparia); [13]): 50
- Plant response rating, Kochia (kochia (Kochia scoparia); [14]): 95
- Plant response rating, Kochia (kochia (Kochia scoparia); [15]): 55
- Plant response rating, Kochia (kochia (Kochia scoparia); [16]): 80
- Plant response rating, Kochia (kochia (Kochia scoparia); [17]): 80
- Plant response rating, Kochia (kochia (Kochia scoparia); [18]): 0
- Plant response rating, Kochia (kochia (Kochia scoparia); [19]): 0
- Plant response rating, Kochia (kochia (Kochia scoparia); [20]): 45

From patent US8952024B2, “Herbicidal pyrimidone derivatives” (E I du Pont de Nemours and Company, priority 2009, dated 2015)
